Assay results taken from patent publication EP0187355A1, “Process for preparing beta-lactam antibiotics” (E.R. Squibb & Sons, Inc., priority 1981, dated 1982).
Where a name gives a salt, the structure may show the parent alone.

Assays:
Experiment in all cases: MIC, agar dilution
Type in all cases: cell-based
[1] = system: Salmonella typhosa, 1195; details: Salmonella enterica, TYPHOSA, 18 h, K-10 agar, 10^4 CFU, 37°C
How it was run: (§1)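 Agar dilution in K-10 agar; final drug 100–0.05 µg/ml, twofold steps. Inoculum 10^4 CFU/spot via multipoint inoculator from 18–20 h broth culture diluted 1:100. Incubation 37°C, 18 h; MIC = lowest concentration with no growth.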

[2] = system: Staphylococcus aureus, 2399; details: Staphylococcus aureus, 2399, 18 h, Staphylococcus aureus, 2399; K-10 agar, 10^4 CFU, 37°C, 18 hours; read-out: M.I.C.
How it was run: as §1

[3] = system: Shigella sonnei, 8449; details: Shigella sonnei, 8449, 18 h, K-10 agar, 10^4 CFU, 37°C
How it was run: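 Inhibition of growth on compound-containing K-10 agar (final 100 to 0.05 µg/ml, twofold series) defined the endpoint, scored after 18 h at 37°C. Spots carried 10^4 CFU, with drug-free growth control plates inoculated before and after test plates.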

[4] = system: Klebsiella pneumoniae, 9527; details: Klebsiella pneumoniae, 9527, 18 h, K-10 agar, 10^4 CFU, 37°C, read-out: M.I.C.
How it was run: as §1

[5] = system: Escherichia coli, 10857; details: Escherichia coli, 10857, 18 h, K-10 agar, 10^4 CFU, 37°C
How it was run: as §1

[6] = system: Staphylococcus aureus, 1276; details: Staphylococcus aureus, 1276; K-10 agar, 10^4 CFU, 37°C, 18 hours; read-out: M.I.C.
How it was run: as §1

[7] = system: Pseudomonas aeruginosa, 8329; details: K-10 agar, 10^4 CFU, 37°C, 18 hours, read-out: M.I.C.
How it was run: as §1

[8] = system: Staphylococcus aureus, 10165; details: Staphylococcus aureus, 10165; K-10 agar, 10^4 CFU, 37°C, 18 hours; read-out: M.I.C.
How it was run: as §1

[9] = system: Klebsiella aerogenes, 10440; details: K-10 agar, 10^4 CFU, 37°C, 18 hours, read-out: M.I.C.
How it was run: as §1

[10] = system: Streptococcus faecalis, 9011; details: Enterococcus faecalis; Streptococcus faecalis, 9011; K-10 agar, 10^4 CFU, 37°C, 18 hours; read-out: M.I.C.
How it was run: as §1

[11] = system: Staphylococcus aureus, 2400; details: Staphylococcus aureus, 2400; K-10 agar, 10^4 CFU, 37°C, 18 hours; read-out: M.I.C.
How it was run: as §1

[12] = system: Citrobacter freundii, 9518; details: K-10 agar, 10^4 CFU, 37°C, 18 hours, read-out: M.I.C.
How it was run: as §1

[13] = system: Proteus rettgeri, 8479; details: Providencia rettgeri, K-10 agar, 10^4 CFU, 37°C, 18 hours, read-out: M.I.C.
How it was run: as §1

[14] = system: Pseudomonas aeruginosa, 9545; details: Pseudomonas aeruginosa, 9545, 18 h, K-10 agar, 10^4 CFU, 37°C, read-out: M.I.C.
How it was run: as §1

[15] = system: Enterobacter aerogenes, 10078; details: Klebsiella aerogenes, 10078, 18 h, Enterobacter aerogenes, 10078; K-10 agar, 10^4 CFU, 37°C, 18 hours; read-out: M.I.C.
How it was run: as §1

[16] = system: Proteus vulgaris, 9416; details: K-10 agar, 10^4 CFU, 37°C, 18 hours, read-out: M.I.C.
How it was run: as §1

[17] = system: Proteus mirabilis, 3855; details: Proteus mirabilis, 3855, 18 h, K-10 agar, 10^4 CFU, 37°C, read-out: M.I.C.
How it was run: as §1

[18] = system: Acinetobacter calcoaceticus, 8333; details: Acinetobacter calcoaceticus, 8333, 18 h, K-10 agar, 10^4 CFU, 37°C, read-out: M.I.C.
How it was run: as §1

[19] = system: Escherichia coli, 10909; details: K-10 agar, 10^4 CFU, 37°C, 18 hours
How it was run: as §1

[20] = system: Escherichia coli, 8294; details: Escherichia coli, 8294, 18 h, K-10 agar, 10^4 CFU, 37°C
How it was run: as §1

[21] = system: Escherichia coli, 10896; details: K-10 agar, 10^4 CFU, 37°C, 18 hours
How it was run: as §1

[22] = system: Serratia marcescens, 9783; details: Serratia marcescens, 9783, 18 h, K-10 agar, 10^4 CFU, 37°C, read-out: M.I.C.
How it was run: as §1

[23] = system: Streptococcus agalactiae, 9287; details: Streptococcus agalactiae, 9287, 18 h, K-10 agar, 10^4 CFU, 37°C, read-out: M.I.C.
How it was run: (§2)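 Broth cultures grown 18-20 h at 37°C, diluted 1:100 in K-10 broth, applied by multipoint inoculator at 10^4 CFU onto K-10 agar holding twofold compound dilutions, 100 to 0.05 µg/ml final. MIC taken as lowest concentration inhibiting growth.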

[24] = system: Enterobacter cloacae, 8236; details: Enterobacter cloacae, 8236, 18 h, K-10 agar, 10^4 CFU, 37°C
How it was run: as §2

[25] = system: Micrococcus luteus, 2495; details: Micrococcus luteus, 2495, 18 h, K-10 agar, 10^4 CFU, 37°C, read-out: M.I.C.
How it was run: as §2

SMILES | MIC [1] [µg/mL] | MIC [2] [µg/mL] | MIC [3] [µg/mL] | MIC [4] [µg/mL] | MIC [5] [µg/mL] | MIC [6] [µg/mL] | MIC [7] [µg/mL] | MIC [8] [µg/mL] | MIC [9] [µg/mL] | MIC [10] [µg/mL] | MIC [11] [µg/mL] | MIC [12] [µg/mL] | MIC [13] [µg/mL] | MIC [14] [µg/mL] | MIC [15] [µg/mL] | MIC [16] [µg/mL] | MIC [17] [µg/mL] | MIC [18] [µg/mL] | MIC [19] [µg/mL] | MIC [20] [µg/mL] | also measured
CC1C(NC(=O)OCc2ccccc2)C(=O)N1S(=O)(=O)O (racemic) [Example 1, (±―cis)-4-Methyl-2-oxo-3-[[(phenylmethoxy)carbonyl]-amino]-1-azetidinesulfonic acid, potassium salt] | > 100 | 50 | > 100 | > 100 | > 100 | 100 | > 100 | 100 | > 100 | > 100 | 50 | > 100 | > 100 | > 100 | > 100 | > 100 | > 100 | > 100 | > 100 | > 100 | MIC [21]: > 100 µg/mL; MIC [22]: > 100 µg/mL; MIC [23]: 100 µg/mL; MIC [24]: > 100 µg/mL; MIC [25]: > 100 µg/mL
C[C@H]1[C@H](NC(=O)OCc2ccccc2)C(=O)N1S(=O)(=O)O [Example 2, (3S-trans)-4-Methyl-2-oxo-3-[[(phenylmethoxy)carbonyl]-amino]-1-azetidinesulfonic acid, potassium salt] | > 100 | 100 | > 100 | > 100 | > 100 | 100 | > 100 | > 100 | > 100 | > 100 | 100 | > 100 | > 100 | > 100 | > 100 | > 100 | > 100 | > 100 | > 100 | > 100 | MIC [21]: > 100 µg/mL; MIC [22]: > 100 µg/mL; MIC [23]: 100 µg/mL; MIC [24]: > 100 µg/mL; MIC [25]: 100 µg/mL
C[C@@H]1[C@H](NC(=O)[C@H](NC(=O)N2CCN(NC(=O)OCc3ccccc3)C(=O)C2=O)c2ccccc2)C(=O)N1S(=O)(=O)O (relative stereo) [Example 20, [3S-[3α(R*),4α]]-[4-[[[2-[(4-methyl-2-oxo-1-sulfo-3-azetidinyl)amino]-2-oxo-1-phenylethyl]amino]carbonyl]-2,3-dioxo-1-piperazinyl]carbamic acid, phenylmethyl ester, potassium salt] | 1.6 | 6.3 | 1.6 | 0.4 | < 0.05 | 6.3 | 100 | > 100 | 12.5 | > 100 | 25 | 3.1 | 1.6 | 3.1 | 6.3 | < 0.05 | 1.6 | 50 | 0.4 | 3.1 | MIC [21]: 0.8 µg/mL; MIC [22]: 3.1 µg/mL; MIC [23]: 3.1 µg/mL; MIC [24]: 1.6 µg/mL; MIC [25]: 3.1 µg/mL
CC1(C)C(NC(=O)Cc2ccccc2)C(=O)N1S(=O)(=O)O (racemic) [Example 26, (±)-4,4-Dimethyl-2-oxo-3-[(phenylacetyl)amino]-1-azetidinesulfonic acid, potassium salt] | > 100 | > 100 | > 100 | > 100 | 50 | > 100 | > 100 | > 100 | > 100 | > 100 | > 100 | > 100 | 100 | > 100 | > 100 | 100 | > 100 | > 100 | > 100 | > 100 | MIC [21]: > 100 µg/mL; MIC [22]: > 100 µg/mL; MIC [23]: > 100 µg/mL; MIC [24]: > 100 µg/mL; MIC [25]: > 100 µg/mL
CC1C(NC(=O)C(NC(=O)N2CCN(N)C(=O)C2=O)c2ccccc2)C(=O)N1S(=O)(=O)O (stereo not drawn) [Example 32, [3S(R*)]-3-[[[[(4-Amino-2,3-dioxo-1-piperazinyl)-carbonyl]amino]phenylacetyl]amino]-4-methyl-2-oxo-l-azetidinesulfonic acid, potassium salt] | 0.2 | 12.5 | 6.3 | 0.2 | 0.4 | 25 | 50 | > 100 | 1.6 | > 100 | 25 | 3.1 | 0.4 | 6.3 | 6.3 | 0.2 | 0.4 | 50 | 0.8 | 3.1 | MIC [21]: 12.5 µg/mL; MIC [22]: 3.1 µg/mL; MIC [23]: 6.3 µg/mL; MIC [24]: 6.3 µg/mL; MIC [25]: 6.3 µg/mL
